Test [1] has as its target T1, EGFR L858R/T790M (H1975-clone #36, homozygous) (Homo sapiens, UniProt P00533, L858R/T790M).
T1 construct: designed to specifically target WT EGFR but preserve the L858R/T790M copy; host or cells: H1975-clone #36
Description: EGFR degradation HTRF assay, H1975-clone #36 cells. The test is classed as cell-based. Particulars: H1975 #36, 16h treatment; for Dmax: NCI-H1975, maximum percentage of degradation. The method, then: H1975-clone #36(L858R/T790M). H1975 cell heterozygously (from ATCC) contains alleles of WT and L858R/T790M EGFR. H1975-clone #36(L858R/T790M) was generated by gene knockout, in which the EGFR targeting sgRNA was designed to specifically target WT EGFR but preserve the L858R/T790M copy. Followed by the gene knockout, the edited H1975 cells were seeded in 96 well plates at the concentration of 1 cell/well, cultured for about 2 weeks to allow single clones formation. The formed clones were screened by DNA sequencing for the desired edition. H1975-clone #36 was confirmed as a homozygous L858R/T790M EGFR clone.
BaF3 WT(wild type), BaF3-LTC(L858R/T790M/C797S) and BaF3-DTC(Del19/T790M/C797S) cells are treated with compounds diluted in 0.2% DMSO cell culture medium and incubate for 16h, 37° C., 5% CO2, H1975-#36, H1975-#28, H1975-#23 and HCC827 cells are treated with compounds diluted in 0.2% DMSO cell culture medium on day 2, incubate for 16h, 37° C., 5% CO2.the final concentriation of compounds in all assay is start with 10 uM, 5-fold dilution, total 8 doses were included.
After 16h treatment, add HTRF lysis buffer to each well; seal the plate and incubate 1 hour at room temperature on a plate shaker; Once the cells are lysed, 16 μL of cell lysate are transferred to a PE 384-well HTRF detection plate; 4 μL of pre-mixed HTRF antibodies are added to each well; Cover the plate with a plate sealer, spin 1000 rpm for 1 min, Incubate overnight at room temperature; Read on BMG PheraStar with HTRF protocol (337 nm-665 nm-620 nm).
The inhibition (degradation) percentage of the compound was calculated by the following equation: Inhibition percentage of Compound=100-100×(Signal-low control)/(High control-low control), wherein signal=each test compound group
High control=Cell group with added DMSO and without compound, indicating microplate readings without EGFR degradation;
Dmax is the maximum percentage of inhibition (degradation).
The IC50 (DC50) value of a compound can be obtained by fitting the following equation
Y=Bottom+(TOP−Bottom)/(1+((IC50/X)^hillslope))
Wherein, X and Y are known values, and IC50, Hillslope, Top and Bottom are the parameters obtained by fitting with software. Y is the inhibition percentage (calculated from the equation), X is the concentration of the compound; IC50 is the concentration of the compound when the 50% inhibition is reached. The smaller the IC50 value is, the stronger the inhibitory ability of the compound is. Vice versa, the higher the IC50 value is, the weaker the inhibitory ability of the compound is; Hillslope represents the slope of the fitted curve, generally around 1*; Bottom represents the minimum value of the curve obtained by data fitting, which is generally 0%±20%; Top represents the maximum value of the curve obtained by data fitting, which is generally 100%±20%. The experimental data were fitted by calculating and analyzing with Dotmatics data analysis software.
Background: In TR-FRET formats the signal depends on donor and acceptor labels being close together.

The target of a further test is T2, EGFR (HCC827 cells) (Homo sapiens, UniProt P00533, DEL746-750).
T2 construct: endogenous in cells; host or cells: HCC827
T2 sequence (P00533 with tags, fused parts or gaps DEL746-750): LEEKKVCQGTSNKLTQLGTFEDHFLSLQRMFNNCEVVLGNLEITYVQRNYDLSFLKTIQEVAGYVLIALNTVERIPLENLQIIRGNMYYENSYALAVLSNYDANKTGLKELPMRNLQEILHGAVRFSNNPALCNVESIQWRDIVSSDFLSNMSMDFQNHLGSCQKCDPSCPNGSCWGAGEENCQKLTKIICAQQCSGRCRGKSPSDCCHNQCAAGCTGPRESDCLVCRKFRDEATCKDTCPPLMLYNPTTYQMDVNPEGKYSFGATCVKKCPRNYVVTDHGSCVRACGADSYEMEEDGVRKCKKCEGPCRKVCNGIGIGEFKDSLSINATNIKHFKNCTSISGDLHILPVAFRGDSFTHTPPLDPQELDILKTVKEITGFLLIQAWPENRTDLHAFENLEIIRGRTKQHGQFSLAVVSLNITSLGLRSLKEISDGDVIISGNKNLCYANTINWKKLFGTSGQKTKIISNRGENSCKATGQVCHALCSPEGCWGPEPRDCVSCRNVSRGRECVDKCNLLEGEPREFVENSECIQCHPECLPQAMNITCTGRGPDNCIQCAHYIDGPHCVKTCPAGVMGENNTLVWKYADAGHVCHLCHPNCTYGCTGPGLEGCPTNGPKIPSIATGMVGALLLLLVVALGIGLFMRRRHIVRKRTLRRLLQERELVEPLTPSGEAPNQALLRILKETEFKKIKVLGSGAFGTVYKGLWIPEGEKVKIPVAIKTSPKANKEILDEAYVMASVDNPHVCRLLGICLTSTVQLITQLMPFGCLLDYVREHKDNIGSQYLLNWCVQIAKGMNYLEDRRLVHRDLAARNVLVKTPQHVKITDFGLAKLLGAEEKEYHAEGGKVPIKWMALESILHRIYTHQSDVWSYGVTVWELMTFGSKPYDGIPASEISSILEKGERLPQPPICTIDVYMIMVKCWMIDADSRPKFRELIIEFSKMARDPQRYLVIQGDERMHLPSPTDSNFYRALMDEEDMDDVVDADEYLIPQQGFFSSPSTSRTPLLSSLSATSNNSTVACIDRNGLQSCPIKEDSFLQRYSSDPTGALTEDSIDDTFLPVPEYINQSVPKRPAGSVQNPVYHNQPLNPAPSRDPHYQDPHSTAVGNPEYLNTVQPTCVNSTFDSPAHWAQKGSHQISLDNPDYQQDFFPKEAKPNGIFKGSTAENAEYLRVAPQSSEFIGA
Description: EGFR degradation HTRF assay, HCC827 cells. In kind it is cell-based. Particulars: HCC827, 16h treatment; for Dmax: maximum percentage of degradation. An outline of the steps: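 Cells treated 16 h at 37 °C, 5% CO2 in medium with 0.2% DMSO; top final concentration 10 uM, 5-fold dilution, 8 doses. Lysates read by HTRF (665/620 nm); degradation % versus DMSO high control, DC50 from four-parameter fit, Dmax as maximal degradation.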

The record followed here is patent US20230265116A1, “DEGRADATION OF (EGFR) BY CONJUGATION OF EGFR INHIBITORS WITH E3 LIGASE LIGAND AND METHODS OF USE” (BEIGENE, LTD., priority 2020, published 2023).

For orientation: DC50 means the concentration at which degradation of the target reaches its halfway point. In general, Dmax refers to the greatest extent of degradation seen.

T1 sequence (P00533 25-1210 T790M/L858R): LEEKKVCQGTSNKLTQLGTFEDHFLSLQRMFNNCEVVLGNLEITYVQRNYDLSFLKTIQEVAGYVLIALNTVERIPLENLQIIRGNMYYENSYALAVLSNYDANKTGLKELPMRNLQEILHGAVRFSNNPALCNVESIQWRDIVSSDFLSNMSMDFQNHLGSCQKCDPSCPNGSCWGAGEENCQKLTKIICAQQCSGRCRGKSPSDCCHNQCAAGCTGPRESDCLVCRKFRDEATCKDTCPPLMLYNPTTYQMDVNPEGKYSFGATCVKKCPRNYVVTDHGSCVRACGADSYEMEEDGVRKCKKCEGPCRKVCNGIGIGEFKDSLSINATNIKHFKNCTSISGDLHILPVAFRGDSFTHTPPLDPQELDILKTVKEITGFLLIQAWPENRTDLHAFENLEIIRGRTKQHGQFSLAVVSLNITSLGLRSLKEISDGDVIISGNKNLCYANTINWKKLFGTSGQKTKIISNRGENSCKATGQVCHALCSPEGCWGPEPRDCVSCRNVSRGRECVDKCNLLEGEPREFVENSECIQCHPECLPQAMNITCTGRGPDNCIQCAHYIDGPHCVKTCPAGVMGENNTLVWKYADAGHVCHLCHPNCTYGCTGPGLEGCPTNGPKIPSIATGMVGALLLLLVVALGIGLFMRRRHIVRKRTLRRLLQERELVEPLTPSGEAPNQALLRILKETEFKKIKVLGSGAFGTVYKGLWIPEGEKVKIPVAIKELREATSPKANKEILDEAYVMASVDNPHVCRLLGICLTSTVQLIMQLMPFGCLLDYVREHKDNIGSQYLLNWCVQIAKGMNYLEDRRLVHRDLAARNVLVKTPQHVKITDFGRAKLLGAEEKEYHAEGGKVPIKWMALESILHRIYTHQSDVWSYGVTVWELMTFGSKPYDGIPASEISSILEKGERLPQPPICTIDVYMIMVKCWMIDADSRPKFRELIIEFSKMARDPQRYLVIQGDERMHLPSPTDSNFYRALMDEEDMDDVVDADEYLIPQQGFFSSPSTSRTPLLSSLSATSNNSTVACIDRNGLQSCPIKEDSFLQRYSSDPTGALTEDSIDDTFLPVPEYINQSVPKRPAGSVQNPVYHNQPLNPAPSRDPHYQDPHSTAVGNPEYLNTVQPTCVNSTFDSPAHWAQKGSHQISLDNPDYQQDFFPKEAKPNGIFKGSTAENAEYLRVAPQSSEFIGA

Consider `CCc1cc(Nc2ncc(Br)c(Nc3ccc4nccnc4c3P(C)(C)=O)n2)c(OC)cc1N1CCC(N2CCN(CCC3CCN(c4ccc(N5CCC(=O)NC5=O)cc4)CC3)CC2)CC1` [Example 55, 1-(4-(4-(2-(4-(1-(4-((5-bromo-4-((5-(dimethylphosphoryl)quinoxalin-6-yl)amino)pyrimidin-2-yl)amino)-2-ethyl-5-methoxyphenyl)piperidin-4-yl)piperazin-1-yl)ethyl)piperidin-1-yl)phenyl)dihydropyrimidine-2,4(1H,3H)-dione], for which the DC50 in test [1] was above 10000 nM; at EGFR (HCC827 cells) it was 313 nM. In addition, the Dmax in test [1] was determined as 18.7%; at EGFR (HCC827 cells), 56.2%.

As for `CCc1cc(Nc2ncc(Br)c(Nc3ccc4nccnc4c3P(C)(C)=O)n2)c(OC)cc1N1CCC(N2CCN(C(=O)CCC3CN(c4ccc5c(c4)C(=O)N(C4CCC(=O)NC4=O)C5=O)C3)CC2)CC1` (centres unmarked) [Example 57, 5-(3-(3-(4-(1-(4-((5-bromo-4-((5-(dimethylphosphoryl)quinoxalin-6-yl)amino)pyrimidin-2-yl)amino)-2-ethyl-5-methoxyphenyl)piperidin-4-yl)piperazin-1-yl)-3-oxopropyl)azetidin-1-yl)-2-(2,6-dioxopiperidin-3-yl)isoindoline-1,3-dione], the DC50 in test [1] is 5.31 nM; on EGFR (HCC827 cells) it was 4.8 nM. For the same compound, the Dmax in test [1] turned out to be 77.4%; on EGFR (HCC827 cells) it was 76.1%.

In test [1], `CCc1cc(Nc2ncc(Br)c(Nc3ccc4nccnc4c3P(C)(C)=O)n2)c(OC)cc1N1CCC(N2CCN(CCC3CN(c4ccc5c(c4)C(=O)N(C4CCC(=O)NC4=O)C5=O)C3)CC2)CC1` (centres unmarked) [Example 58, 5-(3-(2-(4-(1-(4-((5-bromo-4-((5-(dimethylphosphoryl)quinoxalin-6-yl)amino)pyrimidin-2-yl)amino)-2-ethyl-5-methoxyphenyl)piperidin-4-yl)piperazin-1-yl)ethyl)azetidin-1-yl)-2-(2,6-dioxopiperidin-3-yl)isoindoline-1,3-dione] came in with a half-maximal degradation concentration (DC50) of 3.9 nM and a Dmax of 88.5%. On EGFR (HCC827 cells), this compound displayed a DC50 of 5.45 nM and a Dmax of 78.5%.

Regarding `CCc1cc(Nc2ncc(Br)c(Nc3ccc4nccnc4c3P(C)(C)=O)n2)c(OC)cc1N1CCC(N2CCN(CC3CN(c4ccc5c(c4)C(=O)N(C4CCC(=O)NC4=O)C5=O)C3)CC2)CC1` (centres unmarked) [Example 59, 5-(3-((4-(1-(4-((5-bromo-4-((5-(dimethylphosphoryl)quinoxalin-6-yl)amino)pyrimidin-2-yl)amino)-2-ethyl-5-methoxyphenyl)piperidin-4-yl)piperazin-1-yl)methyl)azetidin-1-yl)-2-(2,6-dioxopiperidin-3-yl)isoindoline-1,3-dione], in test [1], half-maximal degradation (DC50) was put at 1.62 nM and the maximal degradation (Dmax) stood at 82.5%. On EGFR (HCC827 cells), this compound registered a DC50 of 4.68 nM and a Dmax of 85.2%.

In test [1], `COc1cc(N2CCC(N(C)CC3CCN(c4ccc(C5CCC(=O)NC5=O)cc4)CC3)CC2)c(C)cc1Nc1ncc(Br)c(Nc2ccc3nccnc3c2P(C)(C)=O)n1` (centres unmarked) [Example 77, 3-(4-(4-(((1-(4-((5-bromo-4-((5-(dimethylphosphoryl)quinoxalin-6-yl)amino)pyrimidin-2-yl)amino)-5-methoxy-2-methylphenyl)piperidin-4-yl)(methyl)amino)methyl)piperidin-1-yl)phenyl)piperidine-2,6-dione] returned a DC50 of 2.77 nM and a Dmax of 63%. At EGFR (HCC827 cells), the DC50 was 9.18 nM and the Dmax is 70.9%.

On to `COc1cc(N2CCC(N(C)CC3CCN(c4ccc(N5CCC(=O)NC5=O)cc4)CC3)CC2)c(C)cc1Nc1ncc(Br)c(Nc2ccc3nccnc3c2P(C)(C)=O)n1` [Example 79, 1-(4-(4-(((1-(4-((5-bromo-4-((5-(dimethylphosphoryl)quinoxalin-6-yl)amino)pyrimidin-2-yl)amino)-5-methoxy-2-methylphenyl)piperidin-4-yl)(methyl)amino)methyl)piperidin-1-yl)phenyl)dihydropyrimidine-2,4(1H,3H)-dione], for which, in test [1], the DC50 was above 10000 nM and the Dmax was found to be 18.6%. On EGFR (HCC827 cells), this compound had a DC50 of 17.5 nM and a Dmax of 72.1%.

In the case of `COc1cc(N2CCC(N(C)CC3CCN(c4ccc(N5CCC(=O)NC5=O)c(F)c4)CC3)CC2)c(C)cc1Nc1ncc(Br)c(Nc2ccc3nccnc3c2P(C)(C)=O)n1` [Example 81, 1-(4-(4-(((1-(4-((5-bromo-4-((5-(dimethylphosphoryl)quinoxalin-6-yl)amino)pyrimidin-2-yl)amino)-5-methoxy-2-methylphenyl)piperidin-4-yl)(methyl)amino)methyl)piperidin-1-yl)-2-fluorophenyl)dihydropyrimidine-2,4(1H,3H)-dione], in test [1], the DC50 was above 10000 nM and the Dmax came to 5.13%. Further, at EGFR (HCC827 cells), half-maximal degradation (DC50) was put at 25.8 nM and the Dmax was 68.8%.

Regarding `COc1cc(N2CCC(N(C)CC3CCN(c4ccc(N5CCC(=O)NC5=O)cc4F)CC3)CC2)c(C)cc1Nc1ncc(Br)c(Nc2ccc3nccnc3c2P(C)(C)=O)n1` [Example 82, 1-(4-(4-(((1-(4-((5-bromo-4-((5-(dimethylphosphoryl)quinoxalin-6-yl)amino)pyrimidin-2-yl)amino)-5-methoxy-2-methylphenyl)piperidin-4-yl)(methyl)amino)methyl)piperidin-1-yl)-3-fluorophenyl)dihydropyrimidine-2,4(1H,3H)-dione], the figures for the DC50 (in test [1]; on EGFR (HCC827 cells)) were above 10000 nM and 14.7 nM, respectively. Further, the Dmax in test [1] turned out to be 12.2%; on EGFR (HCC827 cells), 74%.

In test [1], `COc1cc(N2CCC(N(C)CC3CCN(c4ccc(N5CCC(=O)NC5=O)c(C)c4)CC3)CC2)c(C)cc1Nc1ncc(Br)c(Nc2ccc3nccnc3c2P(C)(C)=O)n1` [Example 83, 1-(4-(4-(((1-(4-((5-bromo-4-((5-(dimethylphosphoryl)quinoxalin-6-yl)amino)pyrimidin-2-yl)amino)-5-methoxy-2-methylphenyl)piperidin-4-yl)(methyl)amino)methyl)piperidin-1-yl)-2-methylphenyl)dihydropyrimidine-2,4(1H,3H)-dione] came in with a 50% degradation concentration (DC50) above 10000 nM and a Dmax of 14.7%. At EGFR (HCC827 cells), this compound returned a half-maximal degradation concentration (DC50) of 20.3 nM and a Dmax of 74.2%.

For `COc1cc(N2CCC(N(C)CCCOc3ccc(N4CCC(=O)NC4=O)cc3)CC2)c(C)cc1Nc1ncc(Br)c(Nc2ccc3nccnc3c2P(C)(C)=O)n1` [Example 85, 1-(4-(3-((1-(4-((5-bromo-4-((5-(dimethylphosphoryl)quinoxalin-6-yl)amino)pyrimidin-2-yl)amino)-5-methoxy-2-methylphenyl)piperidin-4-yl)(methyl)amino)propoxy)phenyl)dihydropyrimidine-2,4(1H,3H)-dione], in test [1], the DC50 is above 10000 nM and the Dmax worked out at 20.9%. On EGFR (HCC827 cells), the half-maximal degradation concentration (DC50) worked out at 73.3 nM and the Dmax stood at 75%.

In test [1], `COc1cc(N2CCN(CC3CCN(c4ccc(C5CCC(=O)NC5=O)cc4)CC3)CC2)c(C)cc1Nc1ncc(Br)c(Nc2ccc3nccnc3c2P(C)(C)=O)n1` (centres unmarked) [Example 88, 3-(4-(4-((4-(4-((5-bromo-4-((5-(dimethylphosphoryl)quinoxalin-6-yl)amino)pyrimidin-2-yl)amino)-5-methoxy-2-methylphenyl)piperazin-1-yl)methyl)piperidin-1-yl)phenyl)piperidine-2,6-dione] displayed a DC50 of 3.54 nM and a Dmax of 54.5%. Further, on EGFR (HCC827 cells), the DC50 amounted to 21.9 nM and the Dmax came to 68.7%.
